3 compounds from patent US7628987B2, “Vectors derived from antibodies for transferring substances into cells” (Institut Pasteur, priority 1997, dated 2009) can be followed below.

For one series, the system named is PV1/Mahoney. In kind it is cell-based, polio virus type 1. Particulars: peptide 25 μg/ml, day 5.
In another series the test system is PV1/Sabin. Format: cell-based, polio virus type 1. Particulars: PV1/Sabin, peptide 25 μg/ml, day 5.
Another series relates to HSV-1 TK^+ virus. Description: microbe, parasite or virus in culture. Format: cell-based, Herpes Virus Simplex type I.
A further series concerns HSV-1 TK^− virus. Description: microbe, parasite or virus in culture. Format: cell-based, Herpes Virus Simplex type I. Particulars: for CPE inhibition (AI): HSV1 TK^−; for inhibition of the CPE effect, in words: HSV-1 TK^−.
The next series concerns Vero cells. Description: Toxicity reference: non infected treated Vero cells (Neutral Red OD). In kind it is cell-based, monkey. As to the method:
The CPE inhibition test is a semi-quantitative test which measures the % survival of the cells. The following protocol was followed: Vero cells were trypsinised (trypsin-versene, Eurobio), distributed in flat bottomed 96-well plates (Falcon) in an amount of […] per well, in 50 μl of DMEM medium (Bioproducts) supplemented with antibiotics, L-glutamine and 5% FCS (Eurobio), then incubated for 24 hours. The peptide/antibodies, sterilised on a […] filter, were added in an amount of […] using the following schedule: • H−24: cells into culture; • H−0: infection; • H−2, H−1, H0, H+1: add peptides; • H+48: CPE test.
48 hours after infection, the medium was removed and the wells were washed 3 times with 200 μl of sterile PBS buffer containing Ca^2+ and Mg^2+, so as to eliminate dead cells. Neutral Red (RAL, 0.3%) was added (100 μl/well) and the cells were incubated for 2 more hours. The cells were then washed 3 times as described above to eliminate colorant which had not been incorporated into the cells. The cells were then exploded by adding 100 μl of 1% SDS in distilled water. After 1 hour at 4° C. to completely leach out the Neutral Red, the crystals were dissolved with a pipette. Air bubbles were destroyed by a current of hot air (hair dryer) and the plates were read, using a microplate reader at 570 nm using a 630 nm reference filter. The optical density blank was air.
The following controls were used: • Reference cells: non infected and non treated, incubated with Neutral Red; • Reference virus: infected cells with different dilutions of a factor of 2 of virus, from 100% CPE (dilution 1/1) to 12.5% CPE (1/8 dilution); • Antiviral reference: cells treated with acyclovir and infected; and • Toxicity reference: non infected cells, treated with different peptides/antibodies.

[1] abbreviates: HSV1 TK^+, added H + 1, 5 μ/well.
Where [2] appears, read: HSV1 TK^+, added H − 1, 5 μ/well.
[3] abbreviates: HSV1 TK^+, added H − 2, 5 μ/well.
The mark [4] stands for this setting: Human alphaherpesvirus 1, Vero, read-out: CPE inhibition (antiviral activity).

For “(K)19-VAYISRGGGIFYYQDSIKGRFTREKYGKRGMDY (KKKKKKKKKKKKKKKKKKKVAYISRGGGIFYYQDSIKGRFTREKYGKRGMDY) [K19pJ20-8]”, the “LOG (TITER/ML)” value in the series with PV1/Mahoney came to 8.9; with PV1/Sabin it was 8.6. Besides, the “TITER REDUCTION FACTOR” value in the series with PV1/Mahoney is listed as 6; with PV1/Sabin it was 8. Besides, the “CPE inhibition (AI)” value in the series with HSV-1 TK^+ virus (HSV1 TK^+, added H0, 5 μ/well) was 37; with HSV-1 TK^+ virus (HSV1 TK^+, added H0, 10 μ/well) it was 71; in the series with HSV-1 TK^+ virus (HSV1 TK^+, added H0, 20 μ/well), 86; with HSV-1 TK^+ virus (setting [1]), 0; in the series on HSV-1 TK^+ virus (HSV1 TK^+, added H + 1, 10 μ/well), 1; in the series with HSV-1 TK^+ virus (HSV1 TK^+, added H + 1, 20 μ/well), 0. Moreover, the “CPE inhibition (AI)” value turned out to be 27 in the series on HSV-1 TK^+ virus (setting [2]); 74 in the series on HSV-1 TK^+ virus (HSV1 TK^+, added H − 1, 10 μ/well); 89 in the series with HSV-1 TK^+ virus (HSV1 TK^+, added H − 1, 20 μ/well); 1 with HSV-1 TK^+ virus (setting [3]); 44 in the series on HSV-1 TK^+ virus (HSV1 TK^+, added H − 2, 10 μ/well); 78 with HSV-1 TK^+ virus (HSV1 TK^+, added H − 2, 20 μ/well). Moreover, the “CPE inhibition (AI)” value in the series on HSV-1 TK^− virus (added H0, 5 μ/well) is 38; in the series on HSV-1 TK^− virus (added H0, 10 μ/well), 56; in the series with HSV-1 TK^− virus (added H0, 20 μ/well) it was 86; with HSV-1 TK^− virus (added H + 1, 5 μ/well), 1; with HSV-1 TK^− virus (added H + 1, 10 μ/well), 3; in the series with HSV-1 TK^− virus (added H + 1, 20 μ/well) it was 11. The “CPE inhibition (AI)” value is 29 in the series with HSV-1 TK^− virus (added H − 1, 5 μ/well); 49 in the series with HSV-1 TK^− virus (added H − 1, 10 μ/well); 100 with HSV-1 TK^− virus (added H − 1, 20 μ/well); 55 in the series with HSV-1 TK^− virus (added H − 2, 5 μ/well); 46 in the series with HSV-1 TK^− virus (added H − 2, 10 μ/well); 0 in the series with HSV-1 TK^− virus (added H − 2, 20 μ/well). For the same compound, the “inhibition of the CPE effect, in words” value in the series with HSV-1 TK^+ virus (HSV-1 TK^+) and in the series with HSV-1 TK^− virus was “very active against the two viral strains” throughout.
On to “(K)19-AISRGGGYSYYLDTVKRTARATWDWFAY (KKKKKKKKKKKKKKKKKKKAISRGGGYSYYLDTVKRTARATWDWFAY) [K19PC2.1]”, for which the “LOG (TITER/ML)” value is reported as 9.05 in the series on PV1/Mahoney and 8.6 with PV1/Sabin. In addition, the figures for the “TITER REDUCTION FACTOR” value in the series with PV1/Mahoney and in the series with PV1/Sabin were 4 and 8, respectively. The “CPE inhibition (AI)” value amounted to 69 in the series with HSV-1 TK^+ virus (HSV1 TK^+, added H0, 5 μ/well); 37 in the series with HSV-1 TK^+ virus (setting [1]); 8 with HSV-1 TK^+ virus (setting [2]); 1 in the series with HSV-1 TK^+ virus (setting [3]); 81 with HSV-1 TK^− virus (added H0, 5 μ/well); 92 in the series with HSV-1 TK^− virus (added H0, 10 μ/well). Further, the “CPE inhibition (AI)” value in the series with HSV-1 TK^− virus (added H + 1, 5 μ/well) came to 26; with HSV-1 TK^− virus (added H − 1, 5 μ/well), 72; in the series with HSV-1 TK^− virus (added H − 2, 5 μ/well) it was 100.
Consider `Nc1nc2c(ncn2COCCO)c(=O)[nH]1` [ACYCLOVIR ®, Acyclovir, reference compound], for which the inhibition at 1000 µM in the series with HSV-1 TK^+ virus (Human alphaherpesvirus 1, Vero, 10^−3 M, HSV1 TK^+, read-out: CPE inhibition (antiviral activity)) worked out at 62%; in the series with HSV-1 TK^− virus (setting [4]) it was 0%. Also, the inhibition at 100 µM was 49% in the series on HSV-1 TK^+ virus (Human alphaherpesvirus 1, Vero, 10^−4 M, HSV1 TK^+, read-out: CPE inhibition (antiviral activity)) and 0% with HSV-1 TK^− virus (setting [4]). In addition, the inhibition at 10 µM came to 7% with HSV-1 TK^+ virus (Human alphaherpesvirus 1, Vero, 10^−5 M, HSV1 TK^+, read-out: CPE inhibition (antiviral activity)) and 0% in the series on HSV-1 TK^− virus (setting [4]). Also, the inhibition at 1 µM in the series with HSV-1 TK^+ virus (Human alphaherpesvirus 1, Vero, 10^−6 M, HSV1 TK^+, read-out: CPE inhibition (antiviral activity)) turned out to be 9%; in the series with HSV-1 TK^− virus (setting [4]) it was 0%. For the same compound, the “inhibition of the CPE effect, in words” value in the series with HSV-1 TK^− virus is on record as “no effect”. The “optical density, non infected cells” value in the series with Vero cells (10^−3 M /0, column HSV1 TK^+) was 0.909 ± 0.016; in the series with Vero cells (10^−3 M /0, column HSV1 TK^−) it was 0.789 ± 0.160; in the series with Vero cells (10^−4 M /0, column HSV1 TK^+) it was 1.027 ± 0.042; in the series with Vero cells (10^−4 M /0, column HSV1 TK^−), 0.834 ± 0.086; in the series on Vero cells (10^−5 M /0, column HSV1 TK^+) it was 0.975 ± 0.093; in the series on Vero cells (10^−5 M /0, column HSV1 TK^−), 0.869 ± 0.053. Moreover, the “optical density, non infected cells” value in the series on Vero cells (10^−6 M /0, column HSV1 TK^+) was determined as 0.960 ± 0.025; in the series on Vero cells (10^−6 M /0, column HSV1 TK^−), 0.816 ± 0.001.

As usually defined, the inhibition is the percentage by which the read-out fell short of the control.
